Laboratory results: the supplement of paper PMC7287046

Experiments:
Conditions in all cases: exposure time: 72 h
AM-38 [1] = experiment: HSA synergy score (Combenefit); higher = more synergy
Experimental: (§1)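 The same 6x6 dose matrices of drug pairs on glioma cell lines (72 h, CellTiter-Glo viability normalised to DMSO, triplicate) were scored with Combenefit. The Loewe, Bliss and HSA synergy scores are given; paper thresholds are Loewe 7.8 and Bliss 2.5.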

SF268 [2] = experiment: as above
Experimental: as §1

T98G [3] = experiment: as above
Experimental: as §1

U87 [4] = experiment: as above
Experimental: as §1

U251 [5] = experiment: as above
Experimental: as §1

SNB75 [6] = experiment: as above
Experimental: as §1

SF539 [7] = experiment: as above
Experimental: as §1

KNS-42 [8] = experiment: as above
Experimental: as §1

U118 [9] = experiment: as above
Experimental: as §1

AM-38 [10] = experiment: Loewe synergy score (Combenefit); higher = more synergy; extreme values may be limits of the assay
Experimental: as §1

SF268 [11] = experiment: as above
Experimental: as §1

T98G [12] = experiment: as above
Experimental: as §1

U87 [13] = experiment: as above
Experimental: as §1

U251 [14] = experiment: as above
Experimental: as §1

SNB75 [15] = experiment: as above
Experimental: as §1

SF539 [16] = experiment: as above
Experimental: as §1

KNS-42 [17] = experiment: as above
Experimental: as §1

U118 [18] = experiment: as above
Experimental: as §1

T98 = experiment: Chou-Talalay combination index (dimensionless); higher = less synergy (more antagonism)
Experimental: (§2)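 Glioma cell lines were treated for 72 h with a 6x6 matrix of two drugs, each in twofold dilutions with the top dose at the single-drug IC50. Viability was read by CellTiter-Glo and normalised to DMSO controls, in triplicate. The Chou-Talalay combination index was computed by the median effect principle; CI < 0.8 means synergy.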

KNS42 = experiment: as above
Experimental: as §2

SF268 [19] = experiment: as above
Experimental: as §2

U87 [20] = experiment: as above
Experimental: as §2

U251 [21] = experiment: as above
Experimental: as §2

SNB75 [22] = experiment: as above
Experimental: as §2

SF539 [23] = experiment: as above
Experimental: as §2

AM38 = experiment: as above
Experimental: as §2

U118 [24] = experiment: as above
Experimental: as §2

AM-38 [25] = experiment: Bliss synergy score (Combenefit); higher = more synergy; extreme values may be limits of the assay
Experimental: as §1

SF268 [26] = experiment: as above
Experimental: as §1

T98G [27] = experiment: as above
Experimental: as §1

U87 [28] = experiment: as above
Experimental: as §1

U251 [29] = experiment: as above
Experimental: as §1

SNB75 [30] = experiment: as above
Experimental: as §1

SF539 [31] = experiment: as above
Experimental: as §1

KNS-42 [32] = experiment: as above
Experimental: as §1

U118 [33] = experiment: as above
Experimental: as §1

Row | SMILES | HSA synergy score (AM-38 [1]) | HSA synergy score (SF268 [2]) | HSA synergy score (T98G [3]) | HSA synergy score (U87 [4]) | HSA synergy score (U251 [5]) | HSA synergy score (SNB75 [6]) | HSA synergy score (SF539 [7]) | HSA synergy score (KNS-42 [8]) | HSA synergy score (U118 [9]) | Loewe synergy score (AM-38 [10]) | Loewe synergy score (SF268 [11]) | Loewe synergy score (T98G [12]) | Loewe synergy score (U87 [13]) | Loewe synergy score (U251 [14]) | Loewe synergy score (SNB75 [15]) | Loewe synergy score (SF539 [16]) | Loewe synergy score (KNS-42 [17]) | Loewe synergy score (U118 [18]) | Chou-Talalay combination index (T98) | Chou-Talalay combination index (KNS42) | Chou-Talalay combination index (SF268 [19]) | Chou-Talalay combination index (U87 [20]) | Chou-Talalay combination index (U251 [21]) | Chou-Talalay combination index (SNB75 [22]) | Chou-Talalay combination index (SF539 [23]) | Chou-Talalay combination index (AM38) | Chou-Talalay combination index (U118 [24]) | Bliss synergy score (AM-38 [25]) | Bliss synergy score (SF268 [26]) | Bliss synergy score (T98G [27]) | Bliss synergy score (U87 [28]) | Bliss synergy score (U251 [29]) | Bliss synergy score (SNB75 [30]) | Bliss synergy score (SF539 [31]) | Bliss synergy score (KNS-42 [32]) | Bliss synergy score (U118 [33])
1 | CC(=O)O[C@@]12CO[C@@H]1C[C@H](O)[C@@]1(C)C(=O)[C@H](O)C3=C(C)[C@@H](OC(=O)[C@H](O)[C@@H](NC(=O)OC(C)(C)C)c4ccccc4)C[C@@](O)([C@@H](OC(=O)c4ccccc4)[C@H]21)C3(C)C [Docetaxel] + O=c1[nH]c2ccccc2n1C1CCN(Cc2ccc(-c3[nH]c4cc5ncnc5cc4nc3-c3ccccc3)cc2)CC1 [Akt inhibitor VIII] | 11 | 11.6 | 0 | 4.37 | 0.629 | 6.81 | 2.57 | 15.2 | 8.23 | 5.53 | 3.03 | 0 | 2.83 | 0 | 0.96 | 1.09 | 10.8 | 3.76 | 0.84 | 0.838 | 0.885 | 0.625 | 0.933 | 0.796 | 0.939 | 0.894 | 0.9 | 0.132 | 1.32 | 0 | 1.56 | 0.156 | 0.989 | 0.217 | 1.6 | 5.46
2 | CCCCCCCCCCCC1=C(O)C(=O)C=C(O)C1=O [Embelin] + N#CC(c1ccnc(NCCc2cccnc2)n1)c1nc2ccccc2s1 [AS601245] | 1.14 | 5.6 | 11.9 | 10.3 | 1.11 | 2.04 | 1.24 | 12.6 | 4.61 | 0 | 0.00767 | 6.59 | 0.927 | 1.11 | 0.557 | 0.787 | 2.73 | 4.39 | 0.365 | 0.78 | 0.923 | 0.0258 | 0.88 | 0.365 | 0.84 | 0.867 | 0.639 | 0.346 | 1.91 | 6.12 | 9.51 | 1.11 | 0.833 | 0.103 | 7.8 | 2.98
3 | CCCCCCCCCCCC1=C(O)C(=O)C=C(O)C1=O [Embelin] + O=c1[nH]c2ccccc2n1C1CCN(Cc2ccc(-c3[nH]c4cc5ncnc5cc4nc3-c3ccccc3)cc2)CC1 [Akt inhibitor VIII] | 2.45 | 6.9 | 5.06 | 3.6 | 0.813 | 5.56 | 2.02 | 21.8 | 2.72 | 0.351 | 1.14 | 3.51 | 1.72 | 0.813 | 1.11 | 0.853 | 21.4 | 1.18 | 0.226 | 0.589 | 0.946 | 0.641 | 0.839 | 0.773 | 1.03 | 0.773 | 0.946 | 1.12 | 2.64 | 1.2 | 3.16 | 0.813 | 1.95 | 0.0542 | 10.1 | 1.02
4 | C#Cc1cccc(Nc2ncnc3cc(OCCOC)c(OCCOC)cc23)c1 [Erlotinib] + CCCCCCCCCCCC1=C(O)C(=O)C=C(O)C1=O [Embelin] | 0 | 4.82 | 1.02 | 0 | 14.6 | 6.85 | 8.08 | 10.4 | 2.42 | 0 | 1.59 | 0.68 | 0 | 10.4 | 1.7 | 1.08 | 5.93 | 2.33 | 0.961 | 0.797 | 0.795 | 1.14 | 0.632 | 0.836 | 0.728 | 1.08 | 0.853 | 0 | 0.32 | 0 | 0 | 10.1 | 0.771 | 2.46 | 5.81 | 0.526
5 | C#Cc1cccc(Nc2ncnc3cc(OCCOC)c(OCCOC)cc23)c1 [Erlotinib] + N#CC(c1ccnc(NCCc2cccnc2)n1)c1nc2ccccc2s1 [AS601245] | 0 | 2.63 | 3.77 | 0 | 3.14 | 1.2 | 2.83 | 2.81 | 3.12 | 0 | 0.12 | 3.11 | 0 | 2.04 | 0.0161 | 0.448 | 1.56 | 2.58 | 0.621 | 0.914 | 0.948 | 3 | 0.946 | 1.07 | 1.01 | 1.25 | 1.02 | 0 | 0.0526 | 0.855 | 0 | 0 | 0 | 0.186 | 0.447 | 0
6 | C#Cc1cccc(Nc2ncnc3cc(OCCOC)c(OCCOC)cc23)c1 [Erlotinib] + O=c1[nH]c2ccccc2n1C1CCN(Cc2ccc(-c3[nH]c4cc5ncnc5cc4nc3-c3ccccc3)cc2)CC1 [Akt inhibitor VIII] | 0 | 10.1 | 6.87 | 0.0775 | 13.6 | 13.2 | 9.63 | 14 | 17 | 0 | 3.87 | 1.87 | 0 | 10.4 | 4.44 | 7.22 | 12.3 | 7.49 | 0.775 | 0.754 | 0.97 | 1.26 | 0.526 | 0.763 | 0.906 | 0.914 | 0.807 | 0 | 1.25 | 0.127 | 0 | 12.6 | 10.2 | 0.771 | 7.67 | 4.68
7 | Nc1ccn([C@@H]2O[C@H](CO)[C@@H](O)C2(F)F)c(=O)n1 [Gemcitabine] + C=CCc1cccc(/C=N/NC(=O)CN2CCN(Cc3ccccc3)CC2)c1O [PAC-1] | 0.966 | 3.55 | 3.73 | 0 | 1.09 | 5.49 | 3.14 | 22.7 | 1.58 | 0.966 | 0.48 | 0.986 | 0 | 0.777 | 0.834 | 0.062 | 21.9 | 0 | 0.935 | 0.675 | 0.965 | 1.06 | 0.722 | 0.978 | 0.863 | 1 | 0.999 | 0 | 0.0746 | 0.518 | 0 | 0.174 | 0.278 | 0.236 | 0.716 | 0
8 | Nc1ccn([C@@H]2O[C@H](CO)[C@@H](O)C2(F)F)c(=O)n1 [Gemcitabine] + CCOc1nc(NC(=O)Cc2cc(OC)ccc2OC)cc(N)c1C#N [JNK inhibitor VIII] | 0 | 0.909 | 0.133 | 22.2 | 0 | 5.13 | 2.34 | 0.883 | 0.0469 | 0 | 0.121 | 0.133 | 22.2 | 0 | 2.33 | 0.162 | 0.883 | 0.043 | 0.958 | 0.946 | 1.03 | 0.631 | 1.16 | 0.913 | 0.933 | 1.14 | 1.03 | 0 | 0.306 | 0.133 | 5.17 | 0 | 0.369 | 0.139 | 0.163 | 0
9 | Nc1ccn([C@@H]2O[C@H](CO)[C@@H](O)C2(F)F)c(=O)n1 [Gemcitabine] + CO[C@H]1C[C@@H]2CC[C@@H](C)[C@@](O)(O2)C(=O)C(=O)N2CCCC[C@H]2C(=O)O[C@H]([C@H](C)C[C@@H]2CC[C@@H](O)[C@H](OC)C2)CC(=O)[C@H](C)/C=C(\C)[C@@H](O)[C@@H](OC)C(=O)[C@H](C)C[C@H](C)/C=C/C=C/C=C/1C [Rapamycin] | 0.0506 | 18.5 | 1.52 | 10 | 4.63 | 4.52 | 18.2 | 0.15 | 23 | 0.0506 | 18.1 | 1.27 | 10 | 4.63 | 4.52 | 16.9 | 0.0119 | 22 | 1.13 | 1.04 | 0.786 | 0.683 | 0.677 | 0.95 | 0.669 | 0.998 | 0.654 | 0.0506 | 6.03 | 0 | 1.89 | 0.62 | 1.41 | 4.47 | 0 | 2.62
